Reference: patent US10947188B2, “Small molecule ferroptosis inducers” (THE TRUSTEES OF COLUMBIA UNIVERSITY IN THE CITY OF NEW YORK, priority 2016, dated 2021)

System: HT-1080
Test: Modulatory profiling: Alamar Blue viability, lethal compound cotreated with death modulator (EC50, AUC)
Assay type: cell-based
Parameters: AUC, modulator HT.3MA / AUC, modulator HT.ALLN / AUC HT.ATA / AUC HT.ActD / AUC HT.BHA / AUC HT.BHT / AUC HT.BocD / AUC HT.CHX / AUC HT.Co2+ / AUC HT.DPQ / AUC HT.EGTA / AUC HT.Lmim / AUC HT.NAD+ / AUC HT.Nec-1 / AUC HT.SP600125 / AUC HT.TLCK / AUC HT.U0126: unit not given beside the values

CCOc1ccccc1-n1c(C(C)N2CCN(C(=O)COc3ccc(Cl)cc3)CC2)nc2ccccc2c1=O (stereo not shown) [erastin, reference compound]
AUC HT.ATA (HT-1080, modulator ATA): −0.1315
AUC HT.ActD (HT-1080, modulator ActD): −0.1111
AUC HT.BHA (HT-1080, modulator BHA): 0.1748
AUC HT.BHT (HT-1080, modulator BHT): 0.1243
AUC HT.BocD (HT-1080, modulator BocD): −0.003341
AUC HT.CHX (HT-1080, modulator CHX): 0.05504
AUC HT.Co2+ (HT-1080, modulator Co2+): −0.2142
AUC HT.CspA (HT-1080, modulator CspA): 0.02449
AUC HT.DPQ (HT-1080, modulator DPQ): 0.05672
AUC HT.EGTA (HT-1080, modulator EGTA): 0.01444
AUC HT.Gd3+ (HT-1080, modulator Gd3+): −0.01326
AUC HT.LNAME (HT-1080, modulator LNAME): −0.008731
AUC HT.Lmim (HT-1080, modulator Lmim): 0.2178
AUC HT.NAD+ (HT-1080, modulator NAD+): −0.02996
AUC HT.NMMA (HT-1080, modulator NMMA): 0.006826
AUC HT.Nec-1 (HT-1080, modulator Nec-1): −0.02551
AUC HT.Pepstatin (HT-1080, modulator Pepstatin): −0.02573
AUC HT.SP600125 (HT-1080, modulator SP600125): −0.03688
AUC HT.TLCK (HT-1080, modulator TLCK): 0.1167
AUC HT.U0126 (HT-1080, modulator U0126): 0.1525
HT.atoc (AUC) (HT-1080, modulator atoc): 0.2643
HT.bCarotene (AUC) (HT-1080, modulator bCarotene): −0.0215
HT.deferox (AUC) (HT-1080, modulator deferox): 0.3025
HT.digoxin (AUC) (HT-1080, modulator digoxin): −0.03393
HT.trolox (AUC) (HT-1080, modulator trolox): 0.2077
HT.zVAD (AUC) (HT-1080, modulator zVAD): −0.07207
AUC, modulator HT.3MA (HT-1080 cells, lethal compound cotreated with modulator 3MA, modulatory profile value (AUC)): −0.04578
AUC, modulator HT.ALLN (HT-1080 cells, lethal compound cotreated with modulator ALLN, modulatory profile value (AUC)): −0.06856
